Assay results taken from ChEMBL document CHEMBL1139911, “4-substituted indazoles as new inhibitors of neuronal nitric oxide synthase” (Bioorg Med Chem Lett, 2007).
Each block holds one compound with its values, some of them ahead of it.

Tests used:
[1] = target: Nitric oxide synthase 1 (Rattus norvegicus, UniProt P29476); assay: Inhibition of rat neuronal NOS
[2] = test system: Mus musculus; assay: Antinociceptive effect in acetic acid-induced mouse assessed as number of writhes for 10 mins at 50 mg/kg, ip; format: functional; conditions: route intraperitoneal
[3] = test system: Mus musculus; assay: Antinociceptive effect in acetic acid-induced mouse assessed as number of writhes for 10 mins at 25 mg/kg, ip; format: functional; conditions: route intraperitoneal
[4] = test system: Mus musculus; assay: Reversal of antinociceptive effect in L-arginine pretreated mouse assessed as number or writhes for 10 mins at 50 mg/kg, ip; format: functional; conditions: route intraperitoneal
[5] = test system: Mus musculus; assay: Antinociceptive effect in mouse assessed as number of writhes for 10 mins at 50 mg/kg, ip; format: functional; conditions: route intraperitoneal
[6] = test system: Mus musculus; assay: Antinociceptive effect in acetic acid-induced mouse assessed as number of writhes for 10 mins at 12.5 mg/kg, ip; format: functional; conditions: route intraperitoneal

Nitric oxide synthase 1, sequence (P29476 whole entry): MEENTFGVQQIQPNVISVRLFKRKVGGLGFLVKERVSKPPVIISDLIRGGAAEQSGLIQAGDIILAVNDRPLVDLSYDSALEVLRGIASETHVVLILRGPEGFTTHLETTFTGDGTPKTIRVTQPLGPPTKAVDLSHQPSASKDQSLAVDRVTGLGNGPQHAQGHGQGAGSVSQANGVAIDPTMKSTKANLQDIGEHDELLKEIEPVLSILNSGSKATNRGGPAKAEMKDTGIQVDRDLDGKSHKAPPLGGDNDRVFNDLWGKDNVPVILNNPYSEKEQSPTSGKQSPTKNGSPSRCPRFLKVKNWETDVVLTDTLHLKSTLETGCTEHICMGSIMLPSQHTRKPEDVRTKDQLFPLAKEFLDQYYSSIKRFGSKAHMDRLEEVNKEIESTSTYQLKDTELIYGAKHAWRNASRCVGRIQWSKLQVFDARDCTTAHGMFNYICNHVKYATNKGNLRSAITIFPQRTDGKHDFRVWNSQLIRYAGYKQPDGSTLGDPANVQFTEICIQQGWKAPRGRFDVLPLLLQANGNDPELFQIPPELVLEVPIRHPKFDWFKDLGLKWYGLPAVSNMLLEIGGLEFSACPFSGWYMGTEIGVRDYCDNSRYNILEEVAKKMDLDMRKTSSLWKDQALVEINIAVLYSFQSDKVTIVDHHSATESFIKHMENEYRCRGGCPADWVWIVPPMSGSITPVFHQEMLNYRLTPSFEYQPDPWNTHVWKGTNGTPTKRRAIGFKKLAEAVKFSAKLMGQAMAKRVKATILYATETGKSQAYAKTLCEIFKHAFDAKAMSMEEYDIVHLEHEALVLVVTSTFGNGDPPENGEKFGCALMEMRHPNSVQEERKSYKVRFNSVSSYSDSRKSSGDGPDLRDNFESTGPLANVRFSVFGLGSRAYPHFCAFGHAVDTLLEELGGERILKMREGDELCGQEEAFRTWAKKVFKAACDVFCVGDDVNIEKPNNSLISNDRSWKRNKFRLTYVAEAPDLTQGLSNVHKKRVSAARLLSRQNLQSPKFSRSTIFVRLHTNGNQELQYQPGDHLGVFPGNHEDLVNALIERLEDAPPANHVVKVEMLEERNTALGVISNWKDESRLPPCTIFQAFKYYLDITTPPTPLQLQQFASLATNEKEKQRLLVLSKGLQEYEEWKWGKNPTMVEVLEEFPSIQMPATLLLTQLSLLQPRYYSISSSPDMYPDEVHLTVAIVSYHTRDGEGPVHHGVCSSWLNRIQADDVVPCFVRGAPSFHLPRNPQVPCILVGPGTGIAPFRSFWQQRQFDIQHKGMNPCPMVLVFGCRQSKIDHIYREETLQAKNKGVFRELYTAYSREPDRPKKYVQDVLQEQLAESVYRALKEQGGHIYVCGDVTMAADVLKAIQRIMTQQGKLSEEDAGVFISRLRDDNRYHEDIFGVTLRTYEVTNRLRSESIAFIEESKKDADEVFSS

SMILES: Fc1ccc2[nH]ncc2c1
IC50 [1]: > 100 µM

SMILES: Brc1ccc2[nH]ncc2c1
IC50 [1]: 72 µM

SMILES: Clc1ccc2[nH]ncc2c1
IC50 [1]: 59.3 µM

SMILES: Brc1ccc2cn[nH]c2c1
IC50 [1]: 4.3 µM

SMILES: Fc1ccc2cn[nH]c2c1
IC50 [1]: > 100 µM

SMILES: Clc1cccc2cn[nH]c12
Activity [2]: 7.9
Activity [3]: 12.9
IC50 [1]: 4.2 µM
Activity [4]: 23
Activity [5]: 12.1
Activity [6]: 15

SMILES: Ic1ccc2[nH]ncc2c1
IC50 [1]: 37 µM

SMILES: Clc1ccc2cn[nH]c2c1
IC50 [1]: 22 µM

SMILES: O=[N+]([O-])c1cccc2[nH]ncc12
Activity [2]: 9.3
Activity [3]: 9.9
Activity [4]: 23.8
Activity [5]: 11.8
Activity [6]: 18

SMILES: O=[N+]([O-])c1cccc2cn[nH]c12 [7-NITROINDAZOLE]
Activity [2]: 6.8

SMILES: N=C(N)NCCC[C@H](N)C(=O)O [ARGININE]
Activity [5]: 22.9

SMILES: CC(=O)Oc1ccccc1C(=O)O [ASPIRIN]
Activity [6]: 7.6

Second part, led by results:

IC50 [1]: 2.4 µM
SMILES: Brc1cccc2[nH]ncc12
Activity [2]: 9.3
Activity [3]: 8.8
Activity [4]: 24.3
Activity [5]: 10.8
Activity [6]: 11

IC50 [1]: 44.3 µM
SMILES: Clc1cccc2[nH]ncc12

IC50 [1]: 17 µM
SMILES: Ic1cccc2[nH]ncc12

IC50 [1]: > 100 µM
SMILES: Fc1cccc2[nH]ncc12

IC50 [1]: 14.3 µM
SMILES: Brc1cccc2cn[nH]c12
